Earlier results as cited in patent publication US12594238B2, “Low hygroscopicity active powder compositions” (PHILIP MORRIS PRODUCTS S.A., priority 2020, dated 2026).

Details: at 25° C.

solubility: 69 g/100 ml water
SMILES: OC[C@H]1O[C@H](O[C@H]2O[C@H](CO)[C@@H](O)[C@H](O)[C@H]2O)[C@H](O)[C@@H](O)[C@@H]1O [trehalose]
